Experimental data taken from patent US20200405708A1, “TREATMENT OF HEREDITARY ANGIOEDEMA” (Attune Pharmaceuticals, Inc., priority 2018, published 2020).
Where “and” joins values, the source holds several entries; their conditions need not be identical. Equal entries are not always repeated. Entries after “also recorded” stand apart in the source; their conditions may differ.

Columns and labels:
plasma kallikrein [1] = molecular target: T1, plasma kallikrein (Homo sapiens, UniProt P03952); assay: contact activation assay in human plasma (ex vivo); assay type: biochemical; set-up: from tissue; host or cells: human plasma
Procedure: (§1) Selectivity was evaluated by biochemical inhibition on plasma kallikrein relative to other serine proteases, including tissue kallikrein 5, plasmin, Factor Xa, Factor VIIa, thrombin, and tissue plasminogen activator (tPA). Potency was evaluated by biochemical inhibition and contact activation assays in human plasma. Pharmacokinetic exposure was evaluated in monkeys after a single oral administration of Compound A at 15 mg/kg. The no-observed-adverse-effect-level (NOAEL) was evaluated in 14-day non-GLP rat and monkey toxicology studies; animals were given daily doses of 100 or 300 mg/kg.
Target sequence in this assay (P03952 391-638 limits assumed): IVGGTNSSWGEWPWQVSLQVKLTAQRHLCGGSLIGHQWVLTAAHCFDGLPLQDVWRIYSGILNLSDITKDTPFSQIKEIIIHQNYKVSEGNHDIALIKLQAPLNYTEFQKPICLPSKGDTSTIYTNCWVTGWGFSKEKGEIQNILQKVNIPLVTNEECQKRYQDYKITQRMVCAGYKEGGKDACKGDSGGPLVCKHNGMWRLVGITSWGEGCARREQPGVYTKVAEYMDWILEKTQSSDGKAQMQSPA
Target sequence in this assay (P03952 20-390 partner limits assumed): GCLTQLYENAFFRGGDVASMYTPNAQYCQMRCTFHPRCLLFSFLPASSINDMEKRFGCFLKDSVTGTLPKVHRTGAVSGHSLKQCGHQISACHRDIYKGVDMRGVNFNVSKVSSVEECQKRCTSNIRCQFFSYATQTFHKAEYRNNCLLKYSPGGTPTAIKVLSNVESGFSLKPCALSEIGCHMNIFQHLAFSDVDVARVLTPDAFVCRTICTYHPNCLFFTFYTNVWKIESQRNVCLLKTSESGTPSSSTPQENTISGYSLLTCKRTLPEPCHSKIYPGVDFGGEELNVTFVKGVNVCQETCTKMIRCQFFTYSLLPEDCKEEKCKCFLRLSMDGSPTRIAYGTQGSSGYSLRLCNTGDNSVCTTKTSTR

plasma kallikrein [2] = molecular target: T1, plasma kallikrein; assay: biochemical inhibition assay of plasma kallikrein
Procedure: as §1
Target sequence in this assay (P03952 20-638): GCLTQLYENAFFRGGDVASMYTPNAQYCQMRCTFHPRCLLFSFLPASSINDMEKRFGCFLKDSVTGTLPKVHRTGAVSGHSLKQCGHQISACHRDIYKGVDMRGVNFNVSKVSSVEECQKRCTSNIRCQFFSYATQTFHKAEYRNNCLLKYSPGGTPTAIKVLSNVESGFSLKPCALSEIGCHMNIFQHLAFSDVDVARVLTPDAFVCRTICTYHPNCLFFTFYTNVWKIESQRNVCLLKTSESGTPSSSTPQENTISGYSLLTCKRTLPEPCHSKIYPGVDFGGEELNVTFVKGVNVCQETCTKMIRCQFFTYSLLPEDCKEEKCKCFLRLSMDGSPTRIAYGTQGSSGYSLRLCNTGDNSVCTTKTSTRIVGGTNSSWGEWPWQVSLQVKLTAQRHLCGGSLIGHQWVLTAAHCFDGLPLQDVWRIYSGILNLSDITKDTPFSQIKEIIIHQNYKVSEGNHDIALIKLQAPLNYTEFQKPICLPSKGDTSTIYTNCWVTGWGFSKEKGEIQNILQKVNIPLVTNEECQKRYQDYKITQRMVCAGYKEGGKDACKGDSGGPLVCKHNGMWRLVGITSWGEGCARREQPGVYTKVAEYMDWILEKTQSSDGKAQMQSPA

[3] = 28-day repeat dose general toxicity study in rats
[4] = bioavailability after single oral administration, dogs; assay type: in vivo, dog; conditions: single oral 30 mg/kg
cytochrome P450 (CYP) = assay: cytochrome P450 inhibition; assay type: in vitro ADME
[5] = single-ascending-dose and food effect pharmacokinetics in healthy male participants; assay type: in vivo; set-up: Mean C24: unit not given here; conditions: human; for AUCinf, geometric mean (geometric % CV) / Cmax, geometric mean (geometric % CV): n = 6; for Mean Cmax: in ng/mL; for Mean AUCinf: in ng·h/mL
Procedure: (§2) A randomized, double-blind, placebo-controlled single ascending dose and crossover food effect study
(§3) 48 healthy male participants (6 active:2 placebo in each of the 6 dose cohorts) received a single daily dose of Compound A 50 mg, 100 mg, 150 mg, 200 mg, 400 mg, or 800 mg. Subjects in the 100 mg dose cohort received first dose of Compound A under fasted condition in period 1 and after a 7-day washout, a second dose 30 minutes after the start of a high fat, high caloric meal in period 2. Serial blood draws were collected to calculate PK parameters, including area under the curve (AUC) from time zero to infinity (AUC), maximum concentration (Cmax), time of maximum concentration (Tmax), and half-life. Safety measures including treatment-emergent adverse events (TEAEs) were assessed.

[6] = metabolism and pharmacokinetics studies of single oral dosing, all species; assay type: in vivo
Procedure: (§4) FIG. 7. A table showing metabolism and pharmacokinetics results of single oral dosing of Compound A. Metabolism study was conducted with radiolabeled [^14C] Compound A.

[7] = safety and tolerability in single-ascending-dose study, healthy male participants; assay type: in vivo, human; conditions: all 6 dose cohorts
Procedure: as §2, §3

[8] = test system: tissue kallikrein 5, tissue kallikrein 7, tissue kallikrein 14, plasmin, Factor Xa, Factor VIIa, thrombin, tissue plasminogen activator (tPA); assay: selectivity by biochemical inhibition versus other serine proteases
Procedure: as §1

[9] = bioavailability after single oral administration, monkeys; assay type: in vivo, monkey; conditions: single oral 30 mg/kg
[10] = 14-day non-GLP rat and monkey toxicology studies; assay type: in vivo; conditions: daily doses of 100 or 300 mg/kg
Procedure: as §1

[11] = toxicology and genotoxicity studies
From the text: FIG. 10. A table showing toxicology/genotoxicity of Compound A.

[12] = pharmacokinetic exposure after single oral dose in monkeys; assay type: in vivo, monkey
Procedure: as §1

[13] = recovery of radiolabeled [14C] Compound A after single oral dosing in rats; assay type: in vivo, rat
Procedure: as §4

[14] = single dose safety pharmacology in rat and monkey; assay type: in vivo
From the text: FIG. 9. A table showing safety pharmacology of Compound A single dose in rat and monkey.

[15] = 28-day repeat dose general toxicity study in monkeys; assay type: in vivo, monkey
Procedure: FIG. 8. Graphic representation of 28-day repeat exposure in monkey toxicology study (NOAEL (100 mg/kg/day) at Day 28.

[16] = bioavailability after single oral administration, rats; assay type: in vivo, rat; conditions: single oral 30 mg/kg
[17] = 100 mg, fed (high fat, high caloric meal)
[18] = monkeys, single oral dose 15 mg/kg

C1-INH: C1 inhibitor (C1-esterase inhibitor, serpin), which inhibits the activity of plasma kallikrein; comparator [Compound C1-INH]
EC50 (plasma kallikrein [1]; human plasma): 92.4 nM | IC50 (plasma kallikrein [2]): 25.4 nM | IC90 (plasma kallikrein [2]): 157 nM

Cc1cc(N)nc(C)c1CNC(=O)c1ccnc(Cc2ccc3ncc(Cl)cc3c2)c1 [Compound A, N-((6-amino-2,4-dimethylpyridin-3-yl)methyl)-2-((3-chloroquinolin-6-yl)methyl)isonicotinamide]
findings at high-dose level ([3]; 300 mg/kg/day, not considered adverse): decreases in body weight and food consumption | NOAEL ([3]; 28-day repeat dose): 300 mg/kg/day | bioavailability [4]: > 40% | inhibition of P450 enzymes (cytochrome P450 (CYP)): does not significantly inhibit P450 enzymes | AUCinf % Ratio, fed vs. fasted ([5]; 100 mg): 150.3% | Cmax % Ratio, fed vs. fasted ([5]; 100 mg): 128.5% | AUCinf, geometric mean (geometric % CV) ([5]; 100 mg, fasted): 2573 (135.1) ng*hr/mL | Cmax, geometric mean (geometric % CV) ([5]; 100 mg, fasted): 297 (236.1) ng/mL | AUCinf, geometric mean (geometric % CV) [5, 17]: 3866 (16.1) ng*hr/mL | Cmax, geometric mean (geometric % CV) [5, 17]: 382 (35.8) ng/mL | food effect on PK ([5]; 100 mg, high fat meal vs fasted): Minimal food effect | dose proportionality of AUCinf and Cmax / systemic exposure ([5]; 50-800 mg, fasted): increased proportionally with dose; also recorded: largely proportional to dose | AUCinf, mean (% CV) ([5]; fasted, 50 mg): 2056 (20.5)^ ng*hr/mL | Cmax, mean (% CV) ([5]; fasted, 50 mg): 244 (20.1) ng/mL | Half-Life, mean (% CV) ([5]; fasted, 50 mg): 6.5 (24.1) Hours | Tmax, mean (% CV) ([5]; fasted, 50 mg): 1.8 (43.3) Hours | AUCinf, mean (% CV) ([5]; fasted, 100 mg): 3325 (47.3) ng*hr/mL | Cmax, mean (% CV) ([5]; fasted, 100 mg): 449 (59.3) ng/mL | Half-Life, mean (% CV) ([5]; fasted, 100 mg): 8.0 (33.0) Hours | Tmax, mean (% CV) ([5]; fasted, 100 mg): 2.8 (109.7) Hours | AUCinf, mean (% CV) ([5]; fasted, 150 mg): 8569 (37.9)^ ng*hr/mL | Cmax, mean (% CV) ([5]; fasted, 150 mg): 848 (33.9) ng/mL | Half-Life, mean (% CV) ([5]; fasted, 150 mg): 9.7 (15.4) Hours | Tmax, mean (% CV) ([5]; fasted, 150 mg): 1.9 (19.6) Hours | Half-Life, mean (% CV) ([5]; fasted, 200 mg): 9.8 (11.3) Hours | Tmax, mean (% CV) ([5]; fasted, 200 mg): 2.3 (50.2) Hours | AUCinf, mean (% CV) ([5]; fasted, 200 mg (5 subjects)): 8382 (30.2)^ ng*hr/mL | Cmax, mean (% CV) ([5]; fasted, 200 mg (5 subjects)): 693 (43.0) ng/mL | AUCinf, mean (% CV) ([5]; fasted, 400 mg): 14010 (21.1) ng*hr/mL | Cmax, mean (% CV) ([5]; fasted, 400 mg): 1351 (18.8) ng/mL | Half-Life, mean (% CV) ([5]; fasted, 400 mg): 9.5 (9.9) Hours | Tmax, mean (% CV) ([5]; fasted, 400 mg): 2.4 (57.7) Hours | AUCinf, mean (% CV) ([5]; fasted, 800 mg): 30180 (35.7) ng*hr/mL | Cmax, mean (% CV) ([5]; fasted, 800 mg): 3015 (32.0) ng/mL | Half-Life, mean (% CV) ([5]; fasted, 800 mg): 9.0 (9.9) Hours | Tmax, mean (% CV) ([5]; fasted, 800 mg): 2.9 (33.3) Hours | Mean C24 ([5]; fasted, dose 50): 19.3 | Mean Cmax ([5]; fasted, dose 50): 244 | Mean AUCinf ([5]; fasted, dose 50): 2056 | Mean C24 ([5]; fasted, dose 100): 27.7 | Mean Cmax ([5]; fasted, dose 100): 449 | Mean AUCinf ([5]; fasted, dose 100): 3325 | Mean C24 ([5]; fasted, dose 150): 83.6 | Mean Cmax ([5]; fasted, dose 150): 848 | Mean AUCinf ([5]; fasted, dose 150): 8569 | Mean C24 ([5]; fasted, dose 200): 69.2 | Mean Cmax ([5]; fasted, dose 200): 693 | Mean AUCinf ([5]; fasted, dose 200): 8382 | Mean C24 ([5]; fasted, dose 400): 124.0 | Mean Cmax ([5]; fasted, dose 400): 1351 | Mean AUCinf ([5]; fasted, dose 400): 14010 | Mean C24 ([5]; fasted, dose 800): 274.0 | Mean Cmax ([5]; fasted, dose 800): 3015 | Mean AUCinf ([5]; fasted, dose 800): 30180 | fold more potent than C1-INH at inhibiting plasma kallikrein (plasma kallikrein [1]; contact activation assay): 11 fold and ~10 fold | EC50 (plasma kallikrein [1]; human plasma): 8.2 nM | EC90 (plasma kallikrein [1]; human plasma): 61.6 nM | bioavailability (in words) [6]: good bioavailability in all species | drug-related TEAEs and serious AEs [7]: No drug-related TEAEs and no serious AEs; also recorded: no moderate or severe TEAEs, no drug-related TEAEs, no SAEs, and no dose limiting toxicity | safety and tolerability (in words) [7]: generally safe and well tolerated | severity of TEAEs [7]: all TEAEs were mild (grade 1) | number of TEAEs observed ([7]; 50-800 mg single dose): 29 | selectivity for plasma kallikrein versus other closely related serine proteases [8]: > 2000 fold | bioavailability [9]: > 40% | no-observed-adverse-effect-level (NOAEL) [10]: 300 mg/kg | genotoxicity or coagulation issues [11]: no genotoxicity or coagulation issues were noted | 24-h exposure relative to EC90 ([12]; monkey, in vivo, po, 15 mg/kg): 4 fold | Cmax exposure relative to EC90 ([12]; monkey, in vivo, po, 15 mg/kg): 25 fold | 24-hour exposure (C24) relative to EC50 [12, 18]: 30 fold | Cmax exposure relative to EC50 [12, 18]: > 180 × | fold below the no-observed-adverse-effect-level (NOAEL) ([12]; single dose 15 mg/kg): 20 fold | recovery of radiolabeled compound (in words) [13]: comprehensive recovery of radiolabeled Compound A | recovery ([13]; intact and bile duct cannulated rats): 99% | mortality or adverse effects on CNS, respiratory, cardiovascular functions [14]: no mortality or adverse effects were observed on central nervous system, respiratory, and cardiovascular functions | IC50 (plasma kallikrein [2]): 2.7 nM | IC90 (plasma kallikrein [2]): 16.2 nM | fold more potent than C1-INH at inhibiting plasma kallikrein (plasma kallikrein [2]; biochemical inhibition assay): 9 fold and ~10 fold | Cmax exposure relative to EC50 ([15]; NOAEL dose, day 28): > 4500 × | 24-h exposure relative to EC90 ([15]; monkey, in vivo, 100 mg/kg/day): 20 fold | Cmax exposure relative to EC90 ([15]; monkey, in vivo, 100 mg/kg/day): > 600 fold | findings at high-dose level ([15]; monkey, in vivo, 300 mg/kg/day): adverse findings in monkeys reversed upon dose reduction to 150 mg/kg/day dose | NOAEL ([15]; monkeys, 28-day repeat dose): 100 mg/kg/day | bioavailability [16]: > 40%
